# Measurements as given in patent publication US20250230165A1, “HETEROCYCLIC COMPOUNDS FOR USE IN THE TREATMENT OF CANCER” (ARTIOS PHARMA LIMITED, priority 2021, published 2025).
# Target: T1, Human Polθ polymerase domain (aa1820-2590) (Homo sapiens, UniProt O75417)
# T1 construct: Human Polθ polymerase domain (aa1820-2590) was expressed in E. coli; made in house; host or cells: E. coli
# T1 sequence (O75417 1820-2590): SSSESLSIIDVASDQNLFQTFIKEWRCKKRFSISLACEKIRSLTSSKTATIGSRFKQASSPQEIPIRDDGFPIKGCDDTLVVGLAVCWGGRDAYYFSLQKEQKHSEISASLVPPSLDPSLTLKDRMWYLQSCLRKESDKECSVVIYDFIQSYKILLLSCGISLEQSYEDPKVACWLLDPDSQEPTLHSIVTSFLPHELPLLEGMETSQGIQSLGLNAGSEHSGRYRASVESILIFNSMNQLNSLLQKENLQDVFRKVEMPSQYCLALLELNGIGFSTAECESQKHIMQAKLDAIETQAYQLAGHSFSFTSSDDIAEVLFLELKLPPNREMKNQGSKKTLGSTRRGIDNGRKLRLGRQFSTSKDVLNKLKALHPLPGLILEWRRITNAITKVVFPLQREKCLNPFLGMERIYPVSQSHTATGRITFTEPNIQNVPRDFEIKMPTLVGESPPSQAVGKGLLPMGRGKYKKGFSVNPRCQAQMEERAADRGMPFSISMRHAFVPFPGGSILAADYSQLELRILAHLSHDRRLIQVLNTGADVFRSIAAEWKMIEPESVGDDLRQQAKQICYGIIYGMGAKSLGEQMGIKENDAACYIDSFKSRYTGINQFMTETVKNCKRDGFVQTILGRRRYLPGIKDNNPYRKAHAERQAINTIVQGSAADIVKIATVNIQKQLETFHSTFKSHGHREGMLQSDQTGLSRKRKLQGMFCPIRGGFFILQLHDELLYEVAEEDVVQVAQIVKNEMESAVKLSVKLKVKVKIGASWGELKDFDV
# Assay: Polθ Polymerase Domain Kinact/KI Assay (PicoGreen)
# Format: biochemical
# Details: 0.8 nM Polθ, 100 nM DNA substrate, kobs vs [I] fit for 2-step covalent inhibitor
# Method: Polθ Polymerase Domain Kinact/KI Assay
# A PicoGreen assay was used to measure the Kinact and KI values of covalent compounds that inhibit the activity of Polθ in vitro.
# Human Polθ polymerase domain (aa1820-2590) was expressed in E. coli, purified, aliquoted and stored at −80° C. until required. Polθ substrate was generated from a 1.2:1 mix of DNA II Short to DNA II Long to give a final concentration of […] substrate in annealing buffer (20 mM Tris pH 7.5, 50 mM NaCl). The substrate was heated in […] aliquots to 95° C. in a heating block for 5 min before the heating block switched off, the reaction left to cool to rt and stored at −20° C. until required.
# Assay measurements were performed with 1× buffer comprising 25 mM Tris pH 7.5, 12.5 mM NaCl, […], 5% (v/v) glycerol, 0.01% v/v Triton x-100, 0.1 mg/ml BSA, 1 mM DTT. Test compounds were prepared by dilution in 100% DMSO to give a 12 μM intermediate stock of each (100× final top concentration). 100 nL of 23×1:1.5-fold serial dilutions and a DMSO only control were dispensed using the Tecan dispenser into Greiner 384 well black low volume plates (product code 784076). DMSO concentration was maintained at 1% of the final assay volume by back filling with DMSO.
# 2× Working stock of substrate (200 nM of DNA substrate and […] dNTPs) and enzyme ([…] PolΘ) were made up in assay buffer. 5 μL/well of both enzyme and substrate 2× solutions were dispensed using a Tempest dispenser (Formulatrix) into assay plates that had been pre-dispensed with compound to give a final assay concentration of 100 nM DNA substrate, […] dNTPs and 0.8 nM Polθ. To stop the reaction, […] of a solution containing 25 mM Tris-HCl pH 7.5 and 20 mM EDTA was added at […] (t=0, 2.5, 5, 7.5, 10, 12.5, 15, 20, 25, 30, 35, 40, 45, 50, 55 and 60 min) using the Tempest's time delay function. The plates were covered during the time course to prevent evaporation. After completing the assay, 5 μL of detection reagent (25 mM Tris-HCl pH 7.5 and 2.5% (v/v) PicoGreen) was dispensed into the wells using a Tempest liquid handler (Formulatrix) and plates subsequently read on the CLARIOstar Plus (BMG Labtech) using the default optical settings for fluorescein and the auto gain/focus settings.
# All data analysis was carried out using GraphPad Prism V.8 (GraphPad Software Inc, San Diego, CA) Time course data for each inhibitor concentration was fitted to equation 1 to determine kobs values.^1 Any time points where the control (DMSO alone) reaction was no longer linear were excluded from the analysis. 1) Evaluation of Enzyme Inhibitors in Drug Discovery (Ch9), R. A Copeland, Wiley, 2nd Edition 2013.
# A secondary plot of kobs vs [I] is used to determine the Kinact and KI parameters (for a 2-step covalent inhibitor) by fitting to equation 2.^1
row,Compound,Kinact/Kl
1,"C=CC(=O)N1Cc2nc(CN3C[C@H]4CC(=O)N(c5cc(C(F)(F)F)cc(C)n5)[C@@H]4C(=O)N(C)c4cccc(Cl)c43)cn2CC1C(F)F (mixture of isomers) [Example 243a, (3aR,11aS)-5-(((S/R)-7-acryloyl-6-(difluoromethyl)-5,6,7,8-tetrahydroimidazo[1,2-a]pyrazin-2-yl)methyl)-6-chloro-10-methyl-1-(6-methyl-4-(trifluoromethyl)pyridin-2-yl)-1,3a,4,5,10,11a-hexahydro-2H-benzo[b]pyrrolo[2,3-f][1,4]diazocine-2,11(3H)-dione]",1.03e+06 M⁻¹ s⁻¹
2,"C=CC(=O)N1Cc2nc(CN3C[C@H]4CC(=O)N(c5cc(C(F)(F)F)cc(C)n5)[C@@H]4C(=O)N(C)c4cccc(Cl)c43)cn2CC1C(F)F (mixture of isomers) [Example 243b, (3aR,11aS)-5-(((R/S)-7-acryloyl-6-(difluoromethyl)-5,6,7,8-tetrahydroimidazo[1,2-a]pyrazin-2-yl)methyl)-6-chloro-10-methyl-1-(6-methyl-4-(trifluoromethyl)pyridin-2-yl)-1,3a,4,5,10,11a-hexahydro-2H-benzo[b]pyrrolo[2,3-f][1,4]diazocine-2,11(3H)-dione]",580000 M⁻¹ s⁻¹
3,"C=CC(=O)NC1CCN(CCN2C[C@H]3CC(=O)N(c4cc(C(F)(F)F)cc(C)n4)[C@@H]3C(=O)N(C)c3cccc(Cl)c32)CC1(F)F (mixture of isomers) [Example 257a, N—((S/R)-1-(2-((3aR,11aS)-6-chloro-10-methyl-1-(6-methyl-4-(trifluoromethyl)pyridin-2-yl)-2,11-dioxo-1,2,3,3a,4,10,11,11a-octahydro-5H-benzo[b]pyrrolo[2,3-f][1,4]diazocin-5-yl)ethyl)-3,3-difluoropiperidin-4-yl)acrylamide]",2.17e+06 M⁻¹ s⁻¹
4,"C=CC(=O)NC1CCN(CCN2C[C@H]3CC(=O)N(c4cc(C(F)(F)F)cc(C)n4)[C@@H]3C(=O)N(C)c3cccc(Cl)c32)CC1(F)F (mixture of isomers) [Example 257b, N—((R/S)-1-(2-((3aR,11aS)-6-chloro-10-methyl-1-(6-methyl-4-(trifluoromethyl)pyridin-2-yl)-2,11-dioxo-1,2,3,3a,4,10,11,11a-octahydro-5H-benzo[b]pyrrolo[2,3-f][1,4]diazocin-5-yl)ethyl)-3,3-difluoropiperidin-4-yl)acrylamide]",2.56e+06 M⁻¹ s⁻¹
5,"C=CC(=O)N1CCN(CCN2C[C@H]3CC(=O)N(c4cc(C(F)(F)F)cc(C)n4)[C@@H]3C(=O)N(C)c3cccc(Cl)c32)CC1CC#N (mixture of isomers) [Example 258a, 2-((R/S)-1-acryloyl-4-(2-((3aR,11aS)-6-chloro-10-methyl-1-(6-methyl-4-(trifluoromethyl)pyridin-2-yl)-2,11-dioxo-1,2,3,3a,4,10,11,11a-octahydro-5H-benzo[b]pyrrolo[2,3-f][1,4]diazocin-5-yl)ethyl)piperazin-2-yl)acetonitrile]",1.65e+06 M⁻¹ s⁻¹
6,"C=CC(=O)N1CCN(CCN2C[C@H]3CC(=O)N(c4cc(C(F)(F)F)cc(C)n4)[C@@H]3C(=O)N(C)c3cccc(Cl)c32)CC1CC#N (mixture of isomers) [Example 258b, 2-((S/R)-1-acryloyl-4-(2-((3aR,11aS)-6-chloro-10-methyl-1-(6-methyl-4-(trifluoromethyl)pyridin-2-yl)-2,11-dioxo-1,2,3,3a,4,10,11,11a-octahydro-5H-benzo[b]pyrrolo[2,3-f][1,4]diazocin-5-yl)ethyl)piperazin-2-yl)acetonitrile]",1.53e+06 M⁻¹ s⁻¹
7,"C=CC(=O)N1CCN(CCCN2C[C@H]3CC(=O)N(c4cc(C(F)(F)F)cc(C)n4)[C@@H]3C(=O)N(C)c3cccc(C)c32)CC1C(F)(F)F (mixture of isomers) [Example 265a, (3aR,11aS)-5-(3-((S/R)-4-acryloyl-3-(trifluoromethyl)piperazin-1-yl)propyl)-6,10-dimethyl-1-(6-methyl-4-(trifluoromethyl)pyridin-2-yl)-1,3a,4,5,10,11a-hexahydro-2H-benzo[b]pyrrolo[2,3-f][1,4]diazocine-2,11(3H)-dione]",3.32e+06 M⁻¹ s⁻¹
8,"C=CC(=O)N1CCN(CCCN2C[C@H]3CC(=O)N(c4cc(C(F)(F)F)cc(C)n4)[C@@H]3C(=O)N(C)c3cccc(C)c32)CC1C(F)(F)F (mixture of isomers) [Example 265b, (3aR,11aS)-5-(3-((R/S)-4-acryloyl-3-(trifluoromethyl)piperazin-1-yl)propyl)-6,10-dimethyl-1-(6-methyl-4-(trifluoromethyl)pyridin-2-yl)-1,3a,4,5,10,11a-hexahydro-2H-benzo[b]pyrrolo[2,3-f][1,4]diazocine-2,11(3H)-dione]",1.58e+06 M⁻¹ s⁻¹
9,"C=CC(=O)N1CCN(CCCN2C[C@H]3CC(=O)N(c4cc(C(F)(F)F)cc(C)n4)[C@@H]3C(=O)N(C)c3cccc(Cl)c32)CC1CC#N (mixture of isomers) [Example 267a, 2-((S/R)-1-acryloyl-4-(3-((3aR,11aS)-6-chloro-10-methyl-1-(6-methyl-4-(trifluoromethyl)pyridin-2-yl)-2,11-dioxo-1,2,3,3a,4,10,11,11a-octahydro-5H-benzo[b]pyrrolo[2,3-f][1,4]diazocin-5-yl)propyl)piperazin-2-yl)acetonitrile]",1.24e+06 M⁻¹ s⁻¹
10,"C=CC(=O)N1CCN(CCCN2C[C@H]3CC(=O)N(c4cc(C(F)(F)F)cc(C)n4)[C@@H]3C(=O)N(C)c3cccc(Cl)c32)CC1CC#N (mixture of isomers) [Example 267b, 2-((R/S)-1-acryloyl-4-(3-((3aR,11aS)-6-chloro-10-methyl-1-(6-methyl-4-(trifluoromethyl)pyridin-2-yl)-2,11-dioxo-1,2,3,3a,4,10,11,11a-octahydro-5H-benzo[b]pyrrolo[2,3-f][1,4]diazocin-5-yl)propyl)piperazin-2-yl)acetonitrile]",3.03e+06 M⁻¹ s⁻¹
11,"C=C(CN(C)C)C(=O)N[C@@H]1CCc2nc(CN3C[C@H]4CC(=O)N(c5cc(C(F)(F)F)cc(C)n5)[C@@H]4C(=O)N(C)c4cccc(C)c43)cn2C1 (mixture of isomers) [Example 329a, N-((R/S)-2-(((3aR, 11aS)-6,10-dimethyl-1-(6-methyl-4-(tri-fluoromethyl)pyridin-2-yl)-2,11-dioxo-1,2,3,3a,4,10,11,11a-octahydro-5H-benzo [b]pyrrolo[2,3-f][1,4]diazocin-5-yl)methyl)-5,6,7,8-tetrahydro-imidazo[1,2-a]pyridin-6-yl)-2-((dimethyl-amino)methyl)acryl-amide]",1.73e+06 M⁻¹ s⁻¹
